Values of other authors as cited in paper PMC3066546, “Development of modified nucleosides that have supremely high anti-HIV activity and low toxicity and prevent the emergence of resistant HIV mutants” (Proceedings of the Japan Academy. Series B, Physical and …, 2011).
Like-named read-outs stand apart in the source and are kept apart here. Values belong to the molecule of their own block, whether it stands above or below them.

Columns and labels:
[1] = target: Y181C (non-nucleoside reverse transcriptase inhibitor-resistant); design: method as in PMID 11087576, PMID 11577734, PMID 15200030; settings: MAGI assay
M184I drug-resistant HIV = tested on: M184I drug-resistant HIV; design: method as in PMID 11087576, PMID 11577734, PMID 15200030; settings: MAGI assay
[2] = tested on: 41/215 drug-resistant HIV; design: method as in PMID 11087576, PMID 11577734, PMID 15200030; settings: MAGI assay
M184V drug-resistant HIV = tested on: M184V drug-resistant HIV; design: method as in PMID 11087576, PMID 11577734, PMID 15200030; settings: MAGI assay
L74V drug-resistant HIV = tested on: L74V drug-resistant HIV; design: method as in PMID 11087576, PMID 11577734, PMID 15200030; settings: MAGI assay
KH65R drug-resistant HIV = tested on: KH65R drug-resistant HIV; design: method as in PMID 11087576, PMID 11577734, PMID 15200030; settings: MAGI assay
HXB2 (wild type HIV) = tested on: HXB2 (wild type HIV); design: method as in PMID 11087576, PMID 11577734, PMID 15200030; settings: MAGI assay
[3] = tested on: 41/69/ 125/SG drug-resistant HIV; design: method as in PMID 11087576, PMID 11577734, PMID 15200030; settings: MAGI assay
HIV-1LAI = settings: MTT assay, MT-4 cells
[4] = target: human mitochondrion DNA polymerase (DNA polymerase γ); design: method as in PMID 17548498, PMID 18487070; settings: read-out: EC50 to inhibit the incorporation of dATP
[5] = tested on: recombinant rat DNA polymerase β; design: method as in earlier work; settings: recombinant rat enzyme
[6] = tested on: calf thymus DNA polymerase α; design: method as in earlier work; settings: calf thymus enzyme
[7] = tested on: MDR (multidrug-resistant HIV); settings: MAGI assay
[8] = cytotoxic concentration, Table 1
[9] = design: method as in PMID 563233, PMID 17548498, PMID 18487070; settings: acidic conditions of gastric juices (pH 1.06), 24 ℃
HIV = tested on: HIV; design: method as in PMID 7764216; settings: Table 1; for EC50: anti-HIV
HIV-1wild = tested on: HIV-1wild; design: method as in PMID 18487070; settings: Table 7; read-out: Anti-HIV activity (MAGI assay, µg) HIV-1wild
HIV-1 M184V = tested on: HIV-1 M184V; design: method as in PMID 563233, PMID 17548498, PMID 18487070; settings: Table 6
HIV-1 Wild-type = tested on: HIV-1 Wild-type; design: method as in PMID 563233, PMID 17548498, PMID 18487070; settings: Table 6
HIV-1MDR = tested on: HIV-1MDR; design: method as in PMID 18487070; settings: Table 7; read-out: Anti-HIV activity (MAGI assay, µg) HIV-1MDR
HIV-1M184V = tested on: HIV-1M184V; design: method as in PMID 18487070; settings: Table 7; read-out: Anti-HIV activity (MAGI assay, µg) HIV-1M184V

Structure (SMILES): C#C[C@]1(CO)O[C@@H](n2ccc(N)nc2=O)C[C@@H]1O [4′EdC, 4′-C-ethynyl-2′-deoxycytidine]
EC50 [1]: 2.1 nM
EC50 (M184I drug-resistant HIV): 2.6 nM
EC50 [2]: 6 nM
EC50 (M184V drug-resistant HIV): 2.4 nM
EC50 (L74V drug-resistant HIV): 1.3 nM
EC50 (KH65R drug-resistant HIV): 0.8 nM
EC50 (HXB2 (wild type HIV)): 1.2 nM
EC50 [3]: 15 nM
EC50 (HIV-1LAI; Table 2, listed as 4′-C-ethynyl-2′-deoxycytidine): 4.8 nM

EC50 [4]: 200 nM
Structure (SMILES): Nc1ncnc2c1ncn2[C@H]1CC[C@@H](CO[P@@](=O)(O)O[P@](=O)(O)OP(=O)(O)O)O1 [ddATP, 2′,3′-dideoxyadenosine-5-O-triphosphate, reference compound]

chain termination of DNA polymerase β [5]: chain terminator
Structure (SMILES): CC1(COP(=O)(O)OP(=O)(O)OP(=O)(O)O)OC(n2ccc(N)nc2=O)CC1O (stereo not shown) [4′MdCTP]
chain termination of DNA polymerase α [6]: chain terminator

Structure (SMILES): C#C[C@]1(CO)O[C@@H](n2ccc(N)nc2=O)[C@@H](O)[C@@H]1O [4′EaraC, 4′-C-ethynyl D-arabino-furanosyl cytosine]
EC50 [1]: 16 nM
CC50 (MT-4 cells; Table 2): 2 µM
EC50 (M184I drug-resistant HIV): 480 nM
EC50 [2]: 26 nM
EC50 (M184V drug-resistant HIV): 710 nM
EC50 (L74V drug-resistant HIV): 26 nM
EC50 [7]: 0.0079 µM
EC50 (KH65R drug-resistant HIV): 15 nM
CC50 (Hela cells; Table 4, Hela cells): > 200 µM
EC50 (HXB2 (wild type HIV)): 7.1 nM
EC50 [3]: 170 nM
EC50 (HIV-1LAI; Table 2): 43 nM

Structure (SMILES): Nc1ncnc2c1ncn2[C@H]1CC[C@@H](CO)O1 [ddA, 2′,3′-dideoxyadenosine, reference compound]
CC50 [8]: > 500 µM
time to complete decomposition [9]: 5 min
SI (CC50/EC50) (HIV): >11
EC50 (HIV): 47 µM

chain termination of DNA polymerase β [5]: chain terminator
Structure (SMILES): CC1(COP(=O)(O)OP(=O)(O)OP(=O)(O)O)OC(n2ccc(N)nc2=O)C(O)C1O (stereo not shown) [4′MAraCTP]
chain termination of DNA polymerase α [6]: chain terminator

Structure (SMILES): Cc1cn([C@H]2C[C@H](N=[N+]=[N-])[C@@H](CO)O2)c(=O)[nH]c1=O [AZT, 3′-azido-3′-deoxythymidine, reference compound]
EC50 (HIV-1wild): 170 nM
EC50 (HIV-1 M184V): 16 nM
EC50 (HIV-1 Wild-type): 3.2 nM
EC50 [1]: 14 nM
CC50 (MT-4 cells): 29.4 µM
EC50 (M184I drug-resistant HIV): 17 nM
EC50 [2]: 300 nM
EC50 (M184V drug-resistant HIV): 10 nM
EC50 (L74V drug-resistant HIV): 20 nM
EC50 (HIV): 0.001 µM
EC50 (HIV-1MDR): 74.3 µM
EC50 [7]: 15.3 µM
EC50 (KH65R drug-resistant HIV): 20 nM
CC50 (Hela cells): > 100 µM
EC50 (HXB2 (wild type HIV)): 22 nM
EC50 [3]: 1600 nM
EC50 (HIV-1M184V): 130 nM
EC50 (HIV-1LAI; Table 2): 3.2 nM
EC50 (HIV-1LAI; Table 3): 3.2 nM
